Test results taken from US4526776A, “Cationic cyanato and thiocyanato complexes useful as radiodiagnostic agents” (E. I. du Pont de Nemours & Company, priority 1983, dated 1985).

Key:
[1] = test system: hepatobiliary transit (liver, gall bladder and gastro-intestinal tract); assay: Visualization of hepatobiliary transit, sequential scintillation camera images after intravenous injection; type: in vivo, rabbit (male New Zealand Albino); details: rabbit, >1 mCi (Disofenin: at least 1 mCi)
Description: A lyophylized vial of HEPATOLITE™ (New England Nuclear Corporation's brand of Technetium Tc99m Disofenin) is labelled with ^99m Tc-pertechnetate in accordance with manufacturer's directions. At least 1 mCi of the labelled preparation is injected intravenously into a 2.5 Kg male New Zealand Albino rabbit. The rabbit is positioned under a Searle Pho-Gamma scintallation camera in such a way that the liver and gastro-intestinal tract are within the field of view.
Greater than 1 mCi of the ^99m Tc-Thiocyanato-DMPE complex from either Example 1 or 2 is injected into a rabbit as in Example 3.

hepatobiliary transit = details: commercially available agent, species not stated; cited from earlier work

CC(C)c1cccc(C(C)C)c1NC(=O)CN(CC(=O)O)CC(=O)O.[99Tc] [Disofenin, Technetium Tc99m Disofenin, reference compound]
sequential images of hepatobiliary transit, passage and image quality [1]: initial liver uptake with gradual visualization of the gall bladder and gastro-intestinal tract, analogous to the diagnostically efficacious results obtained in clinical studies of normal healthy humans | time to sequential images of hepatobiliary transit (liver, gall bladder and gastro-intestinal tract) [1]: about 30 minutes | time to obtain an image of the hepatobiliary transit (hepatobiliary transit): ≤ 30 min

^99m Tc-Thiocyanato - DMPE Complex [Example 2]
sequential images of hepatobiliary transit, passage and image quality [1]: rapid passage and comparable image quality of the liver, gall bladder and gastro-intestinal tract | time to sequential images of hepatobiliary transit (liver, gall bladder and gastro-intestinal tract) [1]: about 10 minutes
